Measured values from PubChem BioAssay (NCI).
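1) Cells in 96-well plates. 2) Compound, 48 h, 5 concentrations. 3) Linear interpolation between surrounding doses. 4) Unreached endpoint = highest concentration. GI50 = concentration required for 50% inhibition of growth. TGI: total growth inhibition.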

Experiments:
Assay in all cases: inhibition of tumour cell growth, NCI panel, 48 h
TK-10 renal = test system: TK-10 renal
HCC-2998 colon = test system: HCC-2998 colon
COLO 205 colon = test system: COLO 205 colon
MALME-3M melanoma = test system: MALME-3M melanoma
CCRF-CEM leukemia = test system: CCRF-CEM leukemia
ACHN renal = test system: ACHN renal
HT29 colon = test system: HT29 colon
PC-3 prostate = test system: PC-3 prostate
DU-145 prostate = test system: DU-145 prostate

| SMILES | TGI (TK-10 renal) [µM] | TGI (HCC-2998 colon) [µM] | TGI (COLO 205 colon) [µM] | TGI (MALME-3M melanoma) [µM] | TGI (CCRF-CEM leukemia) [µM] | TGI (ACHN renal) [µM] | TGI (HT29 colon) [µM] | TGI (PC-3 prostate) [µM] | TGI (DU-145 prostate) [µM] | GI50 (PC-3 prostate) [µM] | GI50 (TK-10 renal) [µM] | GI50 (DU-145 prostate) [µM] | GI50 (COLO 205 colon) [µM] | GI50 (MALME-3M melanoma) [µM] | GI50 (CCRF-CEM leukemia) [µM] | GI50 (ACHN renal) [µM] | GI50 (HT29 colon) [µM] | GI50 (HCC-2998 colon) [µM] |
| --- | --- | --- | --- | --- | --- | --- | --- | --- | --- | --- | --- | --- | --- | --- | --- | --- | --- | --- |
| O=C(c1ccccc1)c1c(-c2ccccc2)sc2nc3ccccc3nc12 | > 100 | > 100 | > 100 | > 100 | > 100 | > 100 | > 100 |  |  |  |  |  |  |  |  |  |  |  |
| CC(C)(C)CC(C)(C)c1cc2c(O)c(c1)Cc1cc(C(C)(C)CC(C)(C)C)cc(c1O)Cc1cc(C(C)(C)CC(C)(C)C)cc(c1O)Cc1cc(C(C)(C)CC(C)(C)C)cc(c1O)Cc1cc(C(C)(C)CC(C)(C)C)cc(c1O)C2 | > 100 | > 100 | > 100 | > 100 | > 100 | > 100 | > 100 |  |  |  |  |  |  |  |  |  |  |  |
| O=C1Cc2c([nH]c3ccccc23)-c2ccccc2N1 | > 100 | 41.2 | 45.9 | > 100 | > 100 | > 100 | 69 |  |  |  |  |  |  |  |  |  |  |  |
| O=C1c2ccccc2-c2oc(=O)c3ccccc3c21 | > 100 |  | > 100 |  | > 100 | > 100 | > 100 | > 100 | > 100 |  |  |  |  |  |  |  |  |  |
| COc1ccc(-c2cc(=O)c3ccccc3o2)cc1N | > 100 | > 100 | > 100 | > 100 | > 100 | > 100 | > 100 |  |  |  |  |  |  |  |  |  |  |  |
| C=C(C#N)C1OCC2OC(C)(C)OC21 (stereo not given) | 58.5 | 83.6 | 30.3 |  | 48.8 | 42.4 | > 100 |  |  |  |  |  |  |  |  |  |  |  |
| c1cc(N2CCCN(c3ccc(C4=NCCCN4)cc3)CC2)ccc1C1=NCCCN1 | > 100 |  | > 100 | > 100 | > 100 | > 100 | > 100 | > 100 | > 100 | 91.9 | 52.5 | > 100 | > 100 | > 100 | > 100 | > 100 | > 100 |  |
| Cc1cc(-c2nc3sccn3c2/C=N/N=C(N)N)c(C)s1 | 31.5 |  |  |  | 48 | 36.8 | 33.8 | 26.3 | 27.8 | 13.4 | 17.4 | 14.2 |  |  | 16.6 | 19.1 | 15.6 |  |
| CC(C)[O-].CC(C)[O-].O=C1C=C([O-])C(=O)c2ccccc21.O=C1C=C([O-])C(=O)c2ccccc21.[Ti+4] | > 100 | > 100 | > 100 | > 100 | > 100 | > 100 | > 100 |  |  |  | > 100 |  | 30 | 14.7 | > 73 | > 85.5 | 34.9 | > 91.7 |
| C[C@]12CCC(=O)C(O)=C1CC[C@@H]1C2CC[C@]2(C)NC(=O)CCC12 (stereo not given in full) | > 100 |  | > 100 | > 100 | > 100 | > 100 | > 100 |  |  |  |  |  |  |  |  |  |  |  |
| O=C1NC(=O)C(c2ccccc2Cl)=C1Nc1cc(Cl)c(O)c(Cl)c1 | > 25 | > 25 | > 25 | > 25 |  | > 25 | > 25 | > 25 | > 25 | > 23 | > 25 | > 25 | > 18.1 | 17 |  | > 23.7 | 14.2 | > 25 |
| CC(=O)[CH-]C(=O)c1ccccc1.CC(=O)[CH-]C(=O)c1ccccc1.CC(C)CCCC(C)[C@H]1CCC2[C@@H]3CC=C4C[C@@H]([O-])CC[C@]4(C)C3CC[C@@]21C.CC(C)CCCC(C)[C@H]1CCC2[C@@H]3CC=C4C[C@@H]([O-])CC[C@]4(C)C3CC[C@@]21C.[Ti+4] (stereo not given in full) | > 100 | > 100 | > 100 |  | > 100 | > 100 | > 100 |  |  |  | > 100 |  | > 100 |  | > 100 | > 100 | > 100 | > 100 |
| O=C(Nc1ccc(Cl)cc1Cl)C1C(=O)C(=O)N(c2ccc(Cl)cc2Cl)C1=O (stereo not given) | > 100 | > 100 |  | > 100 |  | > 100 | > 100 |  |  |  |  |  |  |  |  |  |  |  |
| O=C1C=CC(=O)C12CCc1ccccc12 | > 100 | > 100 | > 100 | > 100 | > 95.2 | > 100 | > 100 |  |  |  |  |  |  |  |  |  |  |  |
| Cn1nc(-c2ccccc2)c(C(=O)/C=C/c2ccc(Cl)cc2)c(N2CCCCC2)c1=O | 14.3 |  | 4.35 |  | 5.56 | 4.31 | 6.9 |  |  |  |  |  |  |  |  |  |  |  |
| CCOc1ccc(N=Cc2ccc3cc(C)ccc3n2)cc1 | > 100 | > 100 | > 100 | > 100 | 60.6 | > 100 | > 100 |  |  |  |  |  |  |  |  |  |  |  |
| COc1cc(OC)c(SSCCCCS(=O)O)c(OC)c1 | 42.9 | 42.4 | 35.7 | 31 | 42.9 | 31.8 | 32.9 |  |  |  |  |  |  |  |  |  |  |  |
| CC1=C(C(=O)Nc2cc(=O)n(C)c(=O)n2C)C(c2cccc([N+](=O)[O-])c2)C(C(=O)Nc2cc(=O)n(C)c(=O)n2C)=C(C)N1 | > 100 | > 100 | > 100 | > 100 | > 100 | > 100 | > 100 |  |  |  |  |  |  |  |  |  |  |  |
